Assays:
[1] = system: wheat (Triticum aestivum); assay: Test A postemergence, wheat; format: in vivo; conditions: Triticum aestivum, post-emergence, 240 h, 0 to 100 scale (0 no effect, 100 complete control), read-out: Plant response rating, Wheat; for plant injury at 31 g/ha: 31 g ai/ha; for plant injury at 125 g/ha: 125 g ai/ha
[2] = system: barnyardgrass (Echinochloa crus-galli); assay: Test B flooded paddy test, barnyardgrass; conditions: Echinochloa crus-galli, read-out: Plant response rating, Barnyardgrass (0 to 100 scale, 0 is no effect, 100 is complete control)
[3] = system: ragweed (common ragweed, Ambrosia elatior); assay: Test A postemergence, ragweed; format: in vivo; conditions: Ambrosia artemisiifolia, post-emergence, 240 h, 0 to 100 scale (0 no effect, 100 complete control), read-out: Plant response rating, Ragweed; for pest or weed control at 31 g/ha: 31 g ai/ha; for pest or weed control at 125 g/ha: 125 g ai/ha
[4] = system: galium (catchweed bedstraw, Galium aparine); assay: Test A postemergence, galium; format: in vivo; conditions: Galium, post-emergence, 240 h, 0 to 100 scale (0 no effect, 100 complete control), read-out: Plant response rating, Galium; for pest or weed control at 31 g/ha: 31 g ai/ha; for pest or weed control at 125 g/ha: 125 g ai/ha
corn (Zea mays) = assay: Test A postemergence, corn; format: in vivo; conditions: Zea mays, post-emergence, 240 h, 0 to 100 scale (0 no effect, 100 complete control); for Corn plant response rating (crop injury, 0 = no effect, 100 = complete kill) at 31 g/ha: 31 g ai/ha; for Corn plant response rating (crop injury, 0 = no effect, 100 = complete kill) at 125 g/ha: 125 g ai/ha
[5] = system: ducksalad (Heteranthera limosa); assay: Test B flooded paddy test, ducksalad; conditions: Heteranthera limosa, read-out: Plant response rating, Ducksalad (0 to 100 scale, 0 is no effect, 100 is complete control)
[6] = system: barnyardgrass (Echinochloa crus-galli); assay: Test A postemergence, barnyardgrass; format: in vivo; conditions: Echinochloa crus-galli, post-emergence, 240 h, 0 to 100 scale (0 no effect, 100 complete control), read-out: Plant response rating, Barnyardgrass; for pest or weed control at 31 g/ha: 31 g ai/ha; for pest or weed control at 125 g/ha: 125 g ai/ha
[7] = system: ragweed (common ragweed, Ambrosia elatior); assay: Test A preemergence, ragweed; format: in vivo; conditions: Ambrosia artemisiifolia, pre-emergence, 240 h, 0 to 100 scale (0 no effect, 100 complete control), read-out: Plant response rating, Ragweed; for pest or weed control at 31 g/ha: 31 g ai/ha; for pest or weed control at 125 g/ha: 125 g ai/ha
kochia (Kochia scoparia) [8] = assay: Test A postemergence, kochia; format: in vivo; conditions: Bassia scoparia, post-emergence, 240 h, 0 to 100 scale (0 no effect, 100 complete control), read-out: Plant response rating, Kochia; for pest or weed control at 31 g/ha: 31 g ai/ha; for pest or weed control at 125 g/ha: 125 g ai/ha
kochia (Kochia scoparia) [9] = assay: Test A preemergence, kochia; format: in vivo; conditions: Bassia scoparia, pre-emergence, 240 h, 0 to 100 scale (0 no effect, 100 complete control), read-out: Plant response rating, Kochia; for pest or weed control at 31 g/ha: 31 g ai/ha; for pest or weed control at 125 g/ha: 125 g ai/ha
[10] = system: pigweed (Amaranthus retroflexus); assay: Test A postemergence, pigweed; format: in vivo; conditions: Amaranthus retroflexus, post-emergence, 240 h, 0 to 100 scale (0 no effect, 100 complete control), read-out: Plant response rating, Pigweed; for pest or weed control at 31 g/ha: 31 g ai/ha; for pest or weed control at 125 g/ha: 125 g ai/ha
[11] = system: blackgrass (Alopecurus myosuroides); assay: Test A postemergence, blackgrass; format: in vivo; conditions: Alopecurus myosuroides, post-emergence, 240 h, 0 to 100 scale (0 no effect, 100 complete control), read-out: Plant response rating, Blackgrass; for pest or weed control at 31 g/ha: 31 g ai/ha; for pest or weed control at 125 g/ha: 125 g ai/ha
rice (Oryza sativa) = assay: Test B flooded paddy test, rice; conditions: Oryza sativa, read-out: Plant response rating, Rice (0 to 100 scale, 0 is no effect, 100 is complete control)
[12] = system: ryegrass, Italian (Italian ryegrass, Lolium multiflorum); assay: Test A preemergence, ryegrass, Italian; format: in vivo; conditions: Lolium multiflorum, pre-emergence, 240 h, 0 to 100 scale (0 no effect, 100 complete control), read-out: Plant response rating, Ryegrass, Italian; for pest or weed control at 31 g/ha: 31 g ai/ha; for pest or weed control at 125 g/ha: 125 g ai/ha
[13] = system: barnyardgrass (Echinochloa crus-galli); assay: Test A preemergence, barnyardgrass; format: in vivo; conditions: Echinochloa crus-galli, pre-emergence, 240 h, 0 to 100 scale (0 no effect, 100 complete control), read-out: Plant response rating, Barnyardgrass; for pest or weed control at 31 g/ha: 31 g ai/ha; for pest or weed control at 125 g/ha: 125 g ai/ha
[14] = system: pigweed (Amaranthus retroflexus); assay: Test A preemergence, pigweed; format: in vivo; conditions: Amaranthus retroflexus, pre-emergence, 240 h, 0 to 100 scale (0 no effect, 100 complete control), read-out: Plant response rating, Pigweed; for pest or weed control at 31 g/ha: 31 g ai/ha; for pest or weed control at 125 g/ha: 125 g ai/ha
[15] = system: ryegrass, Italian (Italian ryegrass, Lolium multiflorum); assay: Test A postemergence, ryegrass, Italian; format: in vivo; conditions: Lolium multiflorum, post-emergence, 240 h, 0 to 100 scale (0 no effect, 100 complete control), read-out: Plant response rating, Ryegrass, Italian; for pest or weed control at 31 g/ha: 31 g ai/ha; for pest or weed control at 125 g/ha: 125 g ai/ha

O=C1OC(CCC(F)(F)F)Cc2c(Oc3ncc(Cl)cn3)cccc21 (stereo not drawn) [Compound 23, 5-[(5-Chloro-2-pyrimidinyl)oxy]-3,4-dihydro-3-(3,3,3-trifluoropropyl)-1H-2-benzopyran-1-one]
20%: plant injury at 31 g/ha [1] | Corn plant response rating (crop injury, 0 = no effect, 100 = complete kill) at 125 g/ha (corn (Zea mays)) | pest or weed control at 31 g/ha [6] | pest or weed control at 125 g/ha [6] | pest or weed control at 31 g/ha (kochia (Kochia scoparia) [8]) | pest or weed control at 31 g/ha [11] | pest or weed control at 31 g/ha [14]
10%: pest or weed control at 125 g/ha [3] | Corn plant response rating (crop injury, 0 = no effect, 100 = complete kill) at 31 g/ha (corn (Zea mays))
100%: pest or weed control at 125 g/ha [14]
30%: plant injury at 125 g/ha [1] | pest or weed control at 125 g/ha [11] | pest or weed control at 125 g/ha [13]
40%: pest or weed control at 31 g/ha [4]
60%: pest or weed control at 125 g/ha (kochia (Kochia scoparia) [9]) | pest or weed control at 31 g/ha [10]
70%: pest or weed control at 125 g/ha [4] | pest or weed control at 125 g/ha (kochia (Kochia scoparia) [8]) | pest or weed control at 125 g/ha [10]
0%: pest or weed control at 250 g/ha [2] | pest or weed control at 31 g/ha [3] | pest or weed control at 250 g/ha [5] | pest or weed control at 31 g/ha [7] | pest or weed control at 125 g/ha [7] | pest or weed control at 31 g/ha (kochia (Kochia scoparia) [9]) | plant injury at 250 g/ha (rice (Oryza sativa)) | pest or weed control at 31 g/ha [12] | pest or weed control at 125 g/ha [12] | pest or weed control at 31 g/ha [13] | pest or weed control at 31 g/ha [15] | pest or weed control at 125 g/ha [15]

O=C1c2cccc(Oc3ncc(Cl)cn3)c2C1CCC(F)(F)F (stereo not drawn) [Compound 24, 2-[(5-Chloro-2-pyrimidinyl)oxy]-8-(3,3,3-trifluoropropyl)bicyclo[4.2.0]octa-1,3,5-trien-7-one]
70%: pest or weed control at 125 g/ha [6] | pest or weed control at 125 g/ha [10]
80%: pest or weed control at 125 g/ha [4] | pest or weed control at 125 g/ha [11]
25%: pest or weed control at 250 g/ha [2]
30%: pest or weed control at 31 g/ha [11] | pest or weed control at 125 g/ha [14]
50%: pest or weed control at 125 g/ha (kochia (Kochia scoparia) [8]) | pest or weed control at 125 g/ha [13]
60%: pest or weed control at 125 g/ha (kochia (Kochia scoparia) [9])
20%: pest or weed control at 125 g/ha [3] | pest or weed control at 31 g/ha [4] | Corn plant response rating (crop injury, 0 = no effect, 100 = complete kill) at 125 g/ha (corn (Zea mays)) | pest or weed control at 31 g/ha [6] | pest or weed control at 31 g/ha (kochia (Kochia scoparia) [8]) | pest or weed control at 31 g/ha (kochia (Kochia scoparia) [9]) | pest or weed control at 31 g/ha [10] | pest or weed control at 125 g/ha [15]
90%: pest or weed control at 250 g/ha [5]
0%: plant injury at 31 g/ha [1] | plant injury at 125 g/ha [1] | pest or weed control at 31 g/ha [3] | pest or weed control at 125 g/ha [7] | plant injury at 250 g/ha (rice (Oryza sativa)) | pest or weed control at 31 g/ha [12] | pest or weed control at 31 g/ha [13] | pest or weed control at 31 g/ha [14] | pest or weed control at 31 g/ha [15]
10%: Corn plant response rating (crop injury, 0 = no effect, 100 = complete kill) at 31 g/ha (corn (Zea mays)) | pest or weed control at 125 g/ha [12]

O=C1OCC(CCC(F)(F)F)c2c(Oc3ncc(Cl)cn3)cccc21 (stereo not drawn) [Compound 25, 5-[(5-Chloro-2-pyrimidinyl)oxy]-3,4-dihydro-4-(3,3,3-trifluoropropyl)-1H-2-benzopyran-1-one]
40%: pest or weed control at 125 g/ha [4]
30%: pest or weed control at 125 g/ha [3] | pest or weed control at 31 g/ha [4] | pest or weed control at 31 g/ha (kochia (Kochia scoparia) [8]) | pest or weed control at 31 g/ha [10] | pest or weed control at 125 g/ha [13]
100%: pest or weed control at 125 g/ha [14]
70%: pest or weed control at 125 g/ha (kochia (Kochia scoparia) [9])
20%: Corn plant response rating (crop injury, 0 = no effect, 100 = complete kill) at 31 g/ha (corn (Zea mays)) | Corn plant response rating (crop injury, 0 = no effect, 100 = complete kill) at 125 g/ha (corn (Zea mays)) | pest or weed control at 31 g/ha [11]
10%: plant injury at 125 g/ha [1] | pest or weed control at 125 g/ha [6] | pest or weed control at 31 g/ha [14]
60%: pest or weed control at 125 g/ha (kochia (Kochia scoparia) [8]) | pest or weed control at 125 g/ha [11]
0%: plant injury at 31 g/ha [1] | pest or weed control at 250 g/ha [2] | pest or weed control at 31 g/ha [3] | pest or weed control at 250 g/ha [5] | pest or weed control at 31 g/ha [6] | pest or weed control at 31 g/ha [7] | pest or weed control at 125 g/ha [7] | pest or weed control at 31 g/ha (kochia (Kochia scoparia) [9]) | plant injury at 250 g/ha (rice (Oryza sativa)) | pest or weed control at 31 g/ha [12] | pest or weed control at 125 g/ha [12] | pest or weed control at 31 g/ha [13] | pest or weed control at 31 g/ha [15] | pest or weed control at 125 g/ha [15]
50%: pest or weed control at 125 g/ha [10]

FC(F)(F)CCCC1OCCc2cccc(Oc3ncc(Cl)cn3)c21 (stereo not drawn) [Compound 27, 5-Chloro-2-[[3,4-dihydro-1-(4,4,4-trifluorobutyl)-1H-2-benzopyran-8-yl]oxy]pyrimidine]
0%: plant injury at 31 g/ha [1] | pest or weed control at 250 g/ha [2] | pest or weed control at 31 g/ha [3] | pest or weed control at 31 g/ha [7] | pest or weed control at 125 g/ha [7] | pest or weed control at 31 g/ha (kochia (Kochia scoparia) [9]) | pest or weed control at 125 g/ha (kochia (Kochia scoparia) [9]) | plant injury at 250 g/ha (rice (Oryza sativa)) | pest or weed control at 31 g/ha [12]
40%: pest or weed control at 31 g/ha [4] | pest or weed control at 125 g/ha [11] | pest or weed control at 125 g/ha [15]
70%: pest or weed control at 125 g/ha [10]
30%: Corn plant response rating (crop injury, 0 = no effect, 100 = complete kill) at 125 g/ha (corn (Zea mays)) | pest or weed control at 125 g/ha [6] | pest or weed control at 31 g/ha [14]
20%: Corn plant response rating (crop injury, 0 = no effect, 100 = complete kill) at 31 g/ha (corn (Zea mays)) | pest or weed control at 31 g/ha [6] | pest or weed control at 31 g/ha [11] | pest or weed control at 125 g/ha [12]
80%: pest or weed control at 125 g/ha [4] | pest or weed control at 125 g/ha [13]
95%: pest or weed control at 250 g/ha [5]
50%: pest or weed control at 31 g/ha [10] | pest or weed control at 125 g/ha [14]
10%: plant injury at 125 g/ha [1] | pest or weed control at 125 g/ha [3] | pest or weed control at 31 g/ha (kochia (Kochia scoparia) [8]) | pest or weed control at 125 g/ha (kochia (Kochia scoparia) [8]) | pest or weed control at 31 g/ha [13] | pest or weed control at 31 g/ha [15]

From patent US11427549B2, “Pyrimidinyloxy benzo-fused compounds as herbicides” (FMC Corporation, priority 2017, dated 2022)
